Reference: patent US5200397A, “Use of peptide analogs of thrombospondin for the inhibition of angiogenic activity” (W. R. Grace & Co.-Conn., priority 1991, dated 1993)
Residues, ends and D or L forms follow the SMILES beside them. No end group written: not given here.

Legend:
[1] = system: Platelet-rich-plasma (PRP); experiment: Platelet aggregation assay (ADP, platelet-rich plasma); assay type: cell-based; conditions: 1 μM ADP
Description: Platelet aggregation was monitored on a single-channel aggregometer equipped to measure luminescence (Chromo-Log, Havertown, Pa.). Platelet-rich-plasma (PRP) was obtained from whole blood anti-coagulated with 0.38% Sodium Citrate by centrifugation at 150 X g for 20 minutes. Peptides were added to 0.5 ml of PRP and aggregation initiated with 1 μM ADP. Buffer blanks contained diluent (water) but no peptide.

[2] = system: Mouse B16 F10 melanoma cells; experiment: Direct adhesion assay (melanoma cells to adsorbed ligand); assay type: cell-based; conditions: for Adhesion as % Thrombospondin: absorbed compound 2 μg, B16 F10 melanoma cells
Description: It is believed that thrombospondin acts in metastasis through its adhesive properties. […] In this assay, wells of a 96-well microtiter dish (Costar, 10 Cambridge, Massachusetts) were incubated for two to three hours with 50 μl of a 40 μg/ml solution of various ligands in 20 mM NaCl, pH 7.3. Thrombospondin (purified by the method of Tuszynski et al., J. Biol. Chem. (1985) 260:12240-5), fibronectin (Sigma Chemical Co., Missouri) served as the positive control. Bovine serum albumin (BSA) (Sigma Chemical Co.) served as the negative control. […] Following peptide adhesion to the microtiter dish, the wells were aspirated, treated with 200 μl phosphate buffered saline (PBS) containing 1% BSA for 1 hour and then washed three more times with 200 μl PBS.
Mouse B16 F10 melanoma cells were grown and harvested during log phase of growth using standard procedures. The harvested cells were washed two times in serum-free Dulbecco's minimum essential medium (DMEM) (Flow Laboratories) and suspended in DMEM at a final concentration of 4×10^5 cells/ml. Of the cell suspension 100 μl was added to each well of the microtiter dish containing the various ligands and the dish incubated at 37° C. in a CO2 incubator for 1 hour. Nonadherent cells were removed by aspiration and the wells washed three times with 200 μl of PBS. The total cell-associated protein was determined by dissolving the attached cells directly in the microtiter wells with 200 μl of the Pierce BCA working solution (Pierce Chem. Co. Booklet No. 23225 (1987)). The plate was covered with an adhesive mylar sheet (Flow Labs) and incubated at 60° C. for 30 minutes. Plates were allowed to cool to room temperature, cover sheets were removed, and the absorbance of each well was determined at 562 nm with a microtiter plate reader (Biotek, Burlington, Vt.)

[3] = system: B16 F10 mouse melanoma cells; experiment: Antimetastatic activity in vivo (lung tumors); set-up: species or system C57 black mice; conditions: for % buffer control (number of lung tumors): intravenous with cells, 16 days
From the text: After 16 days, the mice were sacrificed and the number of lung tumors counted.

fibronectin (FN) = experiment: Competitive platelet adhesion assay, absorbed fibronectin; assay type: cell-based; conditions: 250 μg/ml; absorbed protein FN; platelets
Description: The direct adhesion assay of Example 7 was modified to measure the ability of the peptide compounds of the invention to compete with intact thrombospindin or fibronectin for adhesion of platelets.
In this assay, thrombospondin (TSP) or fibronectin (FN) was absorbed onto microtiter dish as described in Example 7. The assay was similar to Example 7 except that before platelets were added to the microtiter dishes they were preincubated with 250 μg/ml of various ligands.

intact thrombospondin = experiment: Competitive assay, thrombospondin specific adhesion to melanoma cells; assay type: cell-based; conditions: for % of buffer control: melanoma cell adhesion to absorbed thrombospondin
Description: The direct adhesion assay of Example 5 was modified to measure the ability of the peptide compounds of the invention to compete with intact thrombospondin for adhesion to melanoma cells.
In this assay, intact thrombospondin is absorbed onto microtiter dishes as described in Example 5. The assay is similar to Example 5 except that before the melanoma cells are added to the microtiter dishes they are preincubated for 15 minutes with 100 μg/ml of various ligands.

platelets = experiment: Direct platelet adhesion assay; assay type: cell-based; conditions: for Adherence as % Control: wells treated with 50 μl of 40 μg/ml solution, platelets
Description: The number of adherent platelets was essentially determined as previously described (Tuszynski et al., Anal. Bio. supra). Briefly, 100 μl of 5×10^8 platelets/ml washed as previously described (Tuszynski, et al., Blood 72, 109-225, 1988) were added to microtiter plates, the wells of which were treated with 50 μl of a 40 μg/m] peptide or protein solution (Hepes buffered saline, pH 7.4). Solutions were dried at room temperature after incubation in a fume hood for two hours. Wells were blocked for one hour with 1% BSA. Platelets (100 μl) were incubated in the wells for 30 minutes and non-adherent platelets were removed by aspiration. Wells were washed 3X with 200 μl of Hepes buffered saline, pH 7.4. The number of adherent platelets was determined by measuring the platelet-derived protein using the BCA protein assay.

[4] = system: chicken chorioallantoic membrane (CAM); experiment: CAM assay (antiangiogenesis, Avascular Index); assay type: in vivo; conditions: any dosage
Description: Assays for antiangiogenic properties on the chicken chorioallantoic membrane (CAM) were performed using the "egg culture" technique (Auerbach, Dev. Biol. (1974) 41:391 and Crum, Science (1985) 230:1375). The fertilized White Leghorn egg (Truslow Farms, Chestertown, Md.) used in this method was removed from the shell on day 3 (after fertilization) and placed in a culture dish. The "cultured egg" was maintained through day 6 at 37° C. in an atmosphere of 2% CO2 and a relative humidity of 70%. After day 6 incubation was carried out without supplemental CO2.
Test materials were implanted on the CAM using low gelling temperature agarose pellets (Castellot, J. Cell Physiol. (1986) 127:323). This assay was performed twice. In the first assay, the test materials included pellets containing 90, 9, and 0.9 μg of peptide p1 (SEQ ID No. 1) diluted in water. […]
Antiangiogenesis was examined in an assay for inhibition of embryonic angiogenesis as described by Fenselau in "Growth and Maturation Factors" (1984) 2:175. After 1 or 2 days the samples were evaluated for their antiangiogenic effects on the CAM. […]
Inhibition of embryonic angiogenesis was also quantitated by measuring the size of the affected zone surrounding the pellet as well as the portion of the pellet that borders the affected region. […]

collagenase = experiment: Collagenase inhibition assay (Johnson-Wint radiometric); assay type: biochemical; conditions: 2 μg dose
Description: Collagenase inhibitory activity was determined as described by Johnson-Wint (Anal. Biochem. (1980) 104:175). Peptides p1 (SEQ ID No. 1) and p27 (SEQ ID NO. 19) were tested in the Johnson-Witt radiometric enzyme assay for collagenase activity at doses of 50 ng, 100 ng, 250 ng, 500 ng, 1 μg and 2μg. Peptide p27 was inhibitory (-21%) at the 2μg dose.

For “WSPCSVTCG-NH2 (cysteine pairing not given here) [p6]”, the “inhibition of platelet aggregation (in words, FIG. 1)” value [1] was “inhibit platelet aggregation”, the “Adhesion as % Thrombospondin” value [2] was 70% and the “adhesive properties (in words)” value ([2]; melanoma cell adhesion, Table 1) was “display adhesive properties”. The “% buffer control (number of lung tumors)” value ([3]; 30 μg/mouse) was 91%, the “% buffer control (number of lung tumors)” value ([3]; 100 μg/mouse) was 102% and the “% buffer control (number of lung tumors)” value ([3]; 300 μg/mouse) was 50%. For the same compound, the “number of lung tumors versus controls (in words)” value ([3]; mouse, in vivo) was “statistically fewer tumors than controls”, the “size of lung tumors (in words)” value ([3]; mouse, in vivo) was “smaller in size” and the “% Buffer Control” value (fibronectin (FN)) was 96%. For the same compound, the “competition with thrombospondin for adhesion of melanoma cells (in words)” value (intact thrombospondin) was “compete to a lesser degree”, the “% of buffer control” value (intact thrombospondin; 100 μg/ml) was 89% and the “% of buffer control” value (intact thrombospondin; 200 μg/ml) was 74%. The “% of buffer control” value (intact thrombospondin; 300 μg/ml) was 74%, the “adherence to platelets (in words)” value (platelets) was “adhere to platelets” and the “Adherence as % Control” value (platelets) was 38%.

With fibronectin the “Adherence as % Control” value (platelets) was 83%.

For `CC(C)[C@H](NC(=O)[C@H](CO)NC(=O)[C@H](CS)NC(=O)[C@@H]1CCCN1C(=O)[C@H](CO)NC(=O)[C@@H](N)Cc1c[nH]c2ccccc12)C(=O)N[C@H](C(=O)N[C@@H](CS)C(=O)NCC(=O)O)[C@@H](C)O` [p1] (H-WSPCSVTCG-OH), the “toxicity to embryo (abnormal development, embryo death)” value [4] was “not toxic”.

“Bovine serum albumin [BSA, reference compound]” was tested, and the “Adhesion as % Thrombospondin” value [2] was 13% and the “Adherence as % Control” value (platelets) was 0.7%.

Thrombospondin [reference compound] was tested, and the “Adhesion as % Thrombospondin” value [2] was 100% and the “Adherence as % Control” value (platelets) was 100%.

For “p27: Peptide p27 (SEQ ID NO. 19) tested in the collagenase assay; sequence not printed (WTSCSTSCG)”, the “collagenase activity, inhibition” value (collagenase) was -21%.
